# Experimental data: patent US9751869B2, “LXR modulators” (BRISTOL-MYERS SQUIBB COMPANY, priority 2013, dated 2017)
# Target: T1, LXRβ (Homo sapiens, UniProt P55055)
# T1 construct: Co-transfection expression plasmids, comprising full-length LXRα (pCMX-h LXRα or LXRβ (pCMX-hLXRβ)); expressed in transfected cells; host or cells: CV-1 African green monkey kidney cells, transient transfection with pCMX-hLXRβ
# T1 sequence (P55055 1-460): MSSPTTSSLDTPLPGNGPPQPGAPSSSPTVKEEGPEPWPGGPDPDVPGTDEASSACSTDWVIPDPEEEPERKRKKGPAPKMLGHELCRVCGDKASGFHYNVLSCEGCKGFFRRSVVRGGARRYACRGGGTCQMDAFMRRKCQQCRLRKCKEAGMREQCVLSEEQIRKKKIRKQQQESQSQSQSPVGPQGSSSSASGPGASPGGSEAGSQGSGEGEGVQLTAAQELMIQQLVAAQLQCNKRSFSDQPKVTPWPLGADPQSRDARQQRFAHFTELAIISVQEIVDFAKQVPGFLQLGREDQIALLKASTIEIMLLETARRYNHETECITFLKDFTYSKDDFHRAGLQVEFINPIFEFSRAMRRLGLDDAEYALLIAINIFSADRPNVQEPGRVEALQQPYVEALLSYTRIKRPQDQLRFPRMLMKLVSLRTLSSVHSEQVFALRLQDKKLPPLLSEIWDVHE
# T1 sequence (P19793 1-462 partner): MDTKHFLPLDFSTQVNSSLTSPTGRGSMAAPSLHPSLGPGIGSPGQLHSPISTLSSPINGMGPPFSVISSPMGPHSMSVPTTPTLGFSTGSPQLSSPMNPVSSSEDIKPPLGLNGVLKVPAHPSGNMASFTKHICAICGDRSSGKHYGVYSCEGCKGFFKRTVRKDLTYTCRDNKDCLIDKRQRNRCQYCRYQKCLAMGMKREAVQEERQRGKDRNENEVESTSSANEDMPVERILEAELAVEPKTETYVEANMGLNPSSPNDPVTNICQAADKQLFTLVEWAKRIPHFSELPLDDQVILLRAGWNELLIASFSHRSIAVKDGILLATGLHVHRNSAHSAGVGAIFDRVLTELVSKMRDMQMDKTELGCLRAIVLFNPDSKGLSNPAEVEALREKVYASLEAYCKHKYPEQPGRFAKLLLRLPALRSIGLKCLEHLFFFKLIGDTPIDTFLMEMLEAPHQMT
# Assay: LXR/LXRE co-transfection assay (luciferase reporter) in CV-1 cells, LXRβ
# Format: cell-based
# Settings: for EC50: CV-1 cells transfected with pCMX-hLXRβ and LXREx1-Tk-Luciferase, 20 hours incubation, read-out: LXRbeta agonism EC50; for Emax: read-out: LXRbeta % EFFICACY
# Summary of the method: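 CV-1 cells transiently co-transfected with full-length human LXRβ, LXRE-Tk-luciferase reporter and β-galactosidase control, then exposed to compound (≤0.5% DMSO) for 20 h at 37 °C before luminescence read. EC50 from 10-point, half-log dose curves; efficacy relative to the sulfonamide high control, means of 2–3 experiments.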
# [1] = CV-1 cells, relative to maximum response of high control N-(3-((4-fluorophenyl)-(naphthalene-2-sulfonyl)amino)propyl)-2,2-dimethylpropionamide
EC50,Emax [1],LXRbeta % EFFICACY [1],Structure (SMILES)
0.022 µM,35%,–,Cc1nc(-c2ccc(OC(F)(F)F)cc2)c(-c2cc(-c3cc(F)c(CO)c(S(C)(=O)=O)c3)ccc2-n2cc(Cl)c(C(C)(C)O)n2)o1 [Example 443]
2.04 µM,45%,–,"Cc1cc(C(C)(F)F)nn1-c1ccc(-c2cc(F)c(CO)c(S(C)(=O)=O)c2)cc1-n1nncc1-c1ccc(OC(F)(F)F)cc1 [Example 305, {4′-[3-(1,1-difluoroethyl)-5-methyl-1H-pyrazol-1-yl]-3-fluoro-5-(methylsulfonyl)-3′-(5-{4-[(trifluoromethyl)oxy]phenyl}-1H-1,2,3-triazol-1-yl)biphenyl-4-yl}methanol]"
0.046 µM,32%,–,"Cc1nc(-c2ccc3c(c2)OC(F)(F)O3)c(-c2cc(-c3cc(F)c(CO)c(S(C)(=O)=O)c3)ccc2-c2cc(CC(C)(C)O)nn2C)o1 [Example 120, 1-(5-(3-(4-(2,2-difluorobenzo[d][1,3]dioxol-5-yl)-2-methyloxazol-5-yl)-3′-fluoro-4′-(hydroxymethyl)-5′-(methylsulfonyl)-[1,1′-biphenyl]-4-yl)-1-methyl-1H-pyrazol-3-yl)-2-methylpropan-2-ol]"
0.761 µM,24%,–,"Cc1nc(-c2ccc3c(c2)OC(F)(F)O3)c(-c2cc(-c3cc(F)c(CO)c(S(C)(=O)=O)c3)ccc2-c2cc(C(=O)NC(C)(C)C#N)nn2C)o1 [Example 55, N-(2-cyanopropan-2-yl)-5-(3-(4-(2,2-difluorobenzo[d][1,3]dioxol-5-yl)-2-methyloxazol-5-yl)-3′-fluoro-4′-(hydroxymethyl)-5′-(methylsulfonyl)biphenyl-4-yl)-1-methyl-1H-pyrazole-3-carboxamide]"
0.317 µM,42%,–,"Cc1nc(-c2ccc(OC(F)(F)F)cc2)c(-c2cc(-c3cc(F)c(CO)c(S(C)(=O)=O)c3)ccc2-c2cc(C(F)(F)C(N)=O)nn2C)o1 [Example 70, 2,2-difluoro-2-(5-(3′-fluoro-4′-(hydroxymethyl)-3-(2-methyl-4-(4-(trifluoromethoxy)phenyl)oxazol-5-yl)-5′-(methylsulfonyl)biphenyl-4-yl)-1-methyl-1H-pyrazol-3-yl)acetamide]"
0.094 µM,58%,–,"COc1ncc(-c2nc(C)oc2-c2cc(-c3cccc(S(C)(=O)=O)c3)ccc2-n2cc(Cl)c(C(F)(F)F)n2)cn1 [Example 427, 5-(4-(4-chloro-3-(trifluoromethyl)-1H-pyrazol-1-yl)-3′-(methylsulfonyl)-[1,1′-biphenyl]-3-yl)-4-(2-methoxypyrimidin-5-yl)-2-methyloxazole]"
0.344 µM,37%,–,"Cc1nc(-c2ccc3c(c2)OC(F)(F)O3)c(-c2cc(-c3cccc(S(C)(=O)=O)c3)ccc2-c2cc(C(=O)NC(C)(C)C)nn2C)o1 [Example 113, N-(tert-butyl)-5-(3-(4-(2,2-difluorobenzo[d][1,3]dioxol-5-yl)-2-methyloxazol-5-yl)-3′-(methylsulfonyl)-[1,1′-biphenyl]-4-yl)-1-methyl-1H-pyrazole-3-carboxamide]"
0.006 µM,61%,–,"Cc1nc(-c2ccc(OC(F)F)cc2)c(-c2cc(-c3cc(F)c(CO)c(S(C)(=O)=O)c3)ccc2-n2ccc(C(F)(F)F)n2)o1 [Example 436, (3′-(4-(4-(difluoromethoxy)phenyl)-2-methyloxazol-5-yl)-3-fluoro-5-(methylsulfonyl)-4′-(3-(trifluoromethyl)-1H-pyrazol-1-yl)-[1,1′-biphenyl]-4-yl)methanol]"
0.054 µM,–,56%,"Cc1nc(-c2ccc3c(c2)OC(F)(F)O3)c(-c2cc(-c3cc(F)c(CO)c(S(C)(=O)=O)c3)ccc2-c2cc(C(C)O)nn2C)o1 (centres unmarked) [Example 104, 1-(5-(3-(4-(2,2-difluorobenzo[d][1,3]dioxol-5-yl)-2-methyloxazol-5-yl)-3′-fluoro-4′-(hydroxymethyl)-5′-(methylsulfonyl)-[1,1′-biphenyl]-4-yl)-1-methyl-1H-pyrazol-3-yl)ethanol]"
0.007 µM,84%,–,"Cc1nc(-c2cc(-c3cc(F)c(CO)c(S(C)(=O)=O)c3)ccc2-n2nc(C(F)(F)F)cc2C)c(-c2ccc3c(c2)OC(F)(F)O3)o1 [Example 389, (3′-(5-(2,2-difluorobenzo[d][1,3]dioxol-5-yl)-2-methyloxazol-4-yl)-3-fluoro-4′-(5-methyl-3-(trifluoromethyl)-1H-pyrazol-1-yl)-5-(methylsulfonyl)biphenyl-4-yl)methanol]"
1.08 µM,60%,–,"Cc1nc(-c2ccc3c(c2)OC(F)(F)O3)c(-c2cc(-c3cccc(S(C)(=O)=O)c3)ccc2-c2cc(CC(N)=O)nn2C)o1 [Example 119, 2-(5-(3-(4-(2,2-difluorobenzo[d][1,3]dioxol-5-yl)-2-methyloxazol-5-yl)-3′-(methylsulfonyl)-[1,1′-biphenyl]-4-yl)-1-methyl-1H-pyrazol-3-yl)acetamide]"
0.017 µM,87%,–,"Cc1nc(-c2ccc(OC(F)F)c(F)c2)c(-c2cc(-c3cc(F)c(CO)c(S(C)(=O)=O)c3)ccc2-c2cc(C(F)(F)C(=O)N(C)C)nn2C)o1 [Example 79, 2-(5-(3-(4-(4-(difluoromethoxy)-3-fluorophenyl)-2-methyloxazol-5-yl)-3′-fluoro-4′-(hydroxymethyl)-5′-(methylsulfonyl)biphenyl-4-yl)-1-methyl-1H-pyrazol-3-yl)-2,2-difluoro-N,N-dimethylacetamide]"
0.045 µM,83%,–,Cn1nc(C(F)(F)F)cc1-c1ccc(-c2cc(Cl)c(CO)c(S(C)(=O)=O)c2)cc1-n1nncc1-c1ccc(OC(F)(F)F)cc1 [Example 13]
0.134 µM,33%,–,"Cc1nc(-c2ccc3c(c2)OC(F)(F)O3)c(-c2cc(-c3cc(F)c(CO)c(S(C)(=O)=O)c3)ccc2-c2cc(C(F)(F)C(=O)NCC3CC3)nn2C)o1 [Example 87, N-(cyclopropylmethyl)-2-(5-(3-(4-(2,2-difluorobenzo[d][1,3]dioxol-5-yl)-2-methyloxazol-5-yl)-3′-fluoro-4′-(hydroxymethyl)-5′-(methylsulfonyl)biphenyl-4-yl)-1-methyl-1H-pyrazol-3-yl)-2,2-difluoroacetamide]"
0.092 µM,60%,–,"Cc1nc(-c2ccc3c(c2)OC(F)(F)O3)c(-c2cc(-c3cc(F)c(CO)c(S(C)(=O)=O)c3)ccc2-c2cc(C(F)(F)C(N)=O)nn2C)o1 [Example 74, 2-(5-(3-(4-(2,2-difluorobenzo[d][1,3]dioxol-5-yl)-2-methyloxazol-5-yl)-3′-fluoro-4′-(hydroxymethyl)-5′-(methylsulfonyl)biphenyl-4-yl)-1-methyl-1H-pyrazol-3-yl)-2,2-difluoroacetamide]"
0.126 µM,80%,–,"Cn1nc(C(F)F)cc1-c1ccc(-c2cccc(S(C)(=O)=O)c2)cc1-n1nncc1-c1ccc(OC(F)(F)F)cc1 [Example 22, 1-{4-[3-(difluoromethyl)-1-methyl-1H-pyrazol-5-yl]-3′-(methylsulfonyl)biphenyl-3-yl}-5-{4-[(trifluoromethyl)oxy]phenyl}-1H-1,2,3-triazole]"
0.116 µM,72%,–,"Cc1nc(-c2ccc(Cl)cc2)c(-c2cc(-c3cccc(S(C)(=O)=O)c3)ccc2-n2ccc(C(F)(F)F)n2)o1 [Example 344, 4-(4-chlorophenyl)-2-methyl-5-(3′-(methylsulfonyl)-4-(3-(trifluoromethyl)-1H-pyrazol-1-yl)biphenyl-3-yl)oxazole]"
0.091 µM,98%,–,"Cc1cc(C(F)(F)F)nn1-c1ccc(-c2cccc(S(C)(=O)=O)c2)cc1-c1ocnc1-c1ccc(OC(F)(F)F)cc1 [Example 307, 5-{3′-(methylsulfonyl)-4-[5-methyl-3-(trifluoromethyl)-1H-pyrazol-1-yl]biphenyl-3-yl}-4-{4-[(trifluoromethyl)oxy]phenyl}-1,3-oxazole]"
0.007 µM,85%,–,"Cc1nc(-c2ccc3c(c2)OC(F)(F)O3)c(-c2cc(-c3cc(F)c(CO)c(S(C)(=O)=O)c3)ccc2-c2cc(C3(C#N)CC3)nn2C)o1 [Example 60, 1-(5-(3-(4-(2,2-difluorobenzo[d][1,3]dioxol-5-yl)-2-methyloxazol-5-yl)-3′-fluoro-4′-(hydroxymethyl)-5′-(methylsulfonyl)-[1,1′-biphenyl]-4-yl)-1-methyl-1H-pyrazol-3-yl)cyclopropanecarbonitrile]"
